Reference: patent US20240368109A1, “ALLOSTERIC MODULATORS OF NICOTINIC ACETYLCHOLINE RECEPTORS” (MERCK SHARP & DOHME LLC, priority 2021, published 2024)

Target: human α7 nAChR (Homo sapiens (Human), UniProt P36544)
Assay: Automated patch-clamp electrophysiology functional assay (Assay A)
Format: cell-based
Conditions: IonFlux HT whole-cell population patch, HEK cells expressing human α7/RIC-3, 40 μM acetylcholine
Method in brief: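 Whole-cell population patch clamp on HEK cells stably co-expressing human α7 and RIC-3, held at −60 mV, room temperature. Compounds tested at three ascending concentrations per recording with or without 40 μM acetylcholine; currents normalized to the 40 μM acetylcholine-evoked reference response to give agonist and potentiation EC50.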

Chain of human α7 nAChR (P36544 23-502): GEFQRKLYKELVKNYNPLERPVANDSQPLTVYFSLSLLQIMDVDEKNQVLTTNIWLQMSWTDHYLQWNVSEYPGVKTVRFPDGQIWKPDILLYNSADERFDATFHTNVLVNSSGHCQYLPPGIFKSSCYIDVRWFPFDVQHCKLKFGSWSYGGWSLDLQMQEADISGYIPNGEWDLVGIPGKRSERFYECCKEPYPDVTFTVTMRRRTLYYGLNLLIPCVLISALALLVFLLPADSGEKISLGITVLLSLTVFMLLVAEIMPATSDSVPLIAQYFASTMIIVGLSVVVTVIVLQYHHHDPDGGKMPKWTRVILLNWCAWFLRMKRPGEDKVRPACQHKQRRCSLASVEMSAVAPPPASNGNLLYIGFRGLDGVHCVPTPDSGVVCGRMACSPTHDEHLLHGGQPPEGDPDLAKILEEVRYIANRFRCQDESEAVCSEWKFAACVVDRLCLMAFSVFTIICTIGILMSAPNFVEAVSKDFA

SMILES | EC50 (electrophysiology EC50 values) [nM] | EC50 (potency class) [nM]
O=C(NCc1cccs1)C1C2Oc3ccc(F)cc3C21 (stereo not drawn) [Example C17, exo-5-fluoro-N-[(thiophen-2-yl)methyl]-1a,6b-dihydro-1H-cyclopropa[b][1]benzofuran-1-carboxamide] | 970 | 500 to 5000
O=C(NCc1cccc(N2CCCC2)n1)C1C2Oc3ccc(F)cc3C21 (stereo not drawn) [Example C18, 2-{[(exo-5-fluoro-1a,6b-dihydro-1H-cyclopropa[b][1]benzofuran-1-carbonyl)amino]methyl}-6-(pyrrolidin-1-yl)pyridine] | 1400 | 500 to 5000
O=C(NCc1cc(C(F)F)nc(C(F)F)c1)C1C2Oc3ccc(F)cc3C21 (stereo not drawn) [Example C19, exo-N-{[2,6-bis(difluoromethyl)pyridin-4-yl]methyl}-5-fluoro-1a,6b-dihydro-1H-cyclopropa[b][1]benzofuran-1-carboxamide] | 600 | 500 to 5000
CC(NC(=O)C1C2Oc3ccc(F)cc3C21)c1cc2ccccc2o1 (stereo not drawn) [Example C20, exo-N-[1-(1-benzofuran-2-yl)ethyl]-5-fluoro-1a,6b-dihydro-1H-cyclopropa[b][1]benzofuran-1-carboxamide] | 2300 | 500 to 5000
O=C(NCc1cccc(I)c1)C1C2Oc3ccc(F)cc3C21 (stereo not drawn) [Example C21, exo-5-fluoro-N-[(3-iodophenyl)methyl]-1a,6b-dihydro-1H-cyclopropa[b][1]benzofuran-1-carboxamide] | 2100 | 500 to 5000
O=C(NCc1cc(F)ccc1F)C1C2Oc3ccc(F)cc3C21 (stereo not drawn) [Example C22, exo-N-[(2,5-difluorophenyl)methyl]-5-fluoro-1a,6b-dihydro-1H-cyclopropa[b][1]benzofuran-1-carboxamide] | 3400 | 500 to 5000
O=C(NCc1ccc(F)cc1F)C1C2Oc3ccc(F)cc3C21 (stereo not drawn) [Example C23, exo-N-[(2,4-difluorophenyl)methyl]-5-fluoro-1a,6b-dihydro-H-cyclopropa[b][1]benzofuran-1-carboxamide] | 2300 | 500 to 5000
Cc1cc(F)cc(CNC(=O)C2C3Oc4ccc(F)cc4C32)c1 (stereo not drawn) [Example C24, exo-5-fluoro-N-[(3-fluoro-5-methylphenyl)methyl]-1a,6b-dihydro-1H-cyclopropa[b][1]benzofuran-1-carboxamide] | 950 | 500 to 5000
O=C(NCc1ccc(-n2cccc2)cc1)C1C2Oc3ccc(F)cc3C21 (stereo not drawn) [Example C25, exo-5-fluoro-N-{[4-(1H-pyrrol-1-yl)phenyl]methyl}-1a,6b-dihydro-1H-cyclopropa[b][1]benzofuran-1-carboxamide] | 850 | 500 to 5000
O=C(NCc1ccc(O)cc1)C1C2Oc3ccc(F)cc3C21 (stereo not drawn) [Example C26, exo-5-fluoro-N-[(4-hydroxyphenyl)methyl]-1a,6b-dihydro-1H-cyclopropa[b][1]benzofuran-1-carboxamide] | 680 | 500 to 5000
O=C(NCc1ccc2ncccc2c1)C1C2Oc3ccc(F)cc3C21 (stereo not drawn) [Example C27, 6-{[(exo-5-fluoro-1a,6b-dihydro-1H-cyclopropa[b][1]benzofuran-1-carbonyl)amino]methyl}quinoline] | 2000 | 500 to 5000
O=C(NCc1nc2ccccc2s1)C1C2Oc3ccc(F)cc3C21 (stereo not drawn) [Example C28, 2-{[(exo-5-fluoro-1a,6b-dihydro-1H-cyclopropa[b][1]benzofuran-1-carbonyl)amino]methyl}-1,3-benzothiazole] |  | 500 to 5000
COC(=O)C(NC(=O)C1C2Oc3ccc(F)cc3C21)c1cccc(Cl)c1 (stereo not drawn) [Example C29, methyl 2-(3-chlorophenyl)-2-[(exo-5-fluoro-1a,6b-dihydro-1H-cyclopropa[b][1]benzofuran-1-carbonyl)amino]acetate] | 1800 | 500 to 5000
O=C(N[C@@H](CCO)c1ccc(F)cc1)C1C2Oc3ccc(F)cc3C21 (stereo partly drawn) [Example C30, exo-5-fluoro-N-[(1S)-1-(4-fluorophenyl)-3-hydroxypropyl]-1a,6b-dihydro-1H-cyclopropa[b][1]benzofuran-1-carboxamide] | 2800 | 500 to 5000
Cc1ccccc1CNC(=O)C1C2Oc3ccc(F)cc3C21 (stereo not drawn) [Example C31, exo-5-fluoro-N-[(2-methylphenyl)methyl]-1a,6b-dihydro-1H-cyclopropa[b][1]benzofuran-1-carboxamide] | 1800 | 500 to 5000
O=C(NCc1cc(-c2ccccc2)no1)C1C2Oc3ccc(F)cc3C21 (stereo not drawn) [Example C32, exo-5-fluoro-N-[(3-phenyl-1,2-oxazol-5-yl)methyl]-1a,6b-dihydro-1H-cyclopropa[b][1]benzofuran-1-carboxamide] | 190 | 100 to 500
O=C(NCc1n[nH]c2c1CCCCC2)[C@H]1[C@@H]2Oc3ccc(F)cc3[C@@H]21 [Example C33, 3-{[(exo-5-fluoro-1a,6b-dihydro-1H-cyclopropa[b][1]benzofuran-1-carbonyl)amino]methyl}-1,4,5,6,7,8-hexahydrocyclohepta[c]pyrazole] |  | 500 to 5000

SMILES | EC50 (electrophysiology EC50 values) [nM] | EC50 (potency class) [nM]
O=C(NCc1ccc(Oc2ccccn2)cc1)C1C2Oc3ccc(F)cc3C21 (stereo not drawn) [Example C34, exo-5-fluoro-N-({4-[(pyridin-2-yl)oxy]phenyl}methyl)-1a,6b-dihydro-1H-cyclopropa[b][1]benzofuran-1-carboxamide] | 810 | 500 to 5000
O=C(NCc1cccc(-c2ncco2)c1)C1C2Oc3ccc(F)cc3C21 (stereo not drawn) [Example C35, exo-5-fluoro-N-{[3-(1,3-oxazol-2-yl)phenyl]methyl}-1a,6b-dihydro-1H-cyclopropa[b][1]benzofuran-1-carboxamide] | 2400 | 500 to 5000
C[C@H](NC(=O)C1C2Oc3ccc(F)cc3C21)c1cccc2ncccc12 (stereo partly drawn) [Example C36, 5-{(1S)-1-[(exo-5-fluoro-1a,6b-dihydro-1H-cyclopropa[b][1]benzofuran-1-carbonyl)amino]ethyl}quinoline] | 1300 | 500 to 5000
CC(NC(=O)C1C2Oc3ccc(F)cc3C21)c1ccc(Br)cc1 (stereo not drawn) [Example C37, exo-N-[1-(4-bromophenyl)ethyl]-5-fluoro-1a,6b-dihydro-1H-cyclopropa[b][1]benzofuran-1-carboxamide] | 1800 | 500 to 5000
O=C(NCc1ccc2cnccc2c1)C1C2Oc3ccc(F)cc3C21 (stereo not drawn) [Example C38, 6-{[(exo-5-fluoro-1a,6b-dihydro-1H-cyclopropa[b][1]benzofuran-1-carbonyl)amino]methyl}isoquinoline] | 4700 | 500 to 5000
O=C(NC(c1ccccc1)c1ccncc1)[C@@H]1[C@H]2Oc3ccc(F)cc3[C@H]21 (stereo partly drawn) [Example C39, 4-{[(exo-5-fluoro-1a,6b-dihydro-1H-cyclopropa[b][1]benzofuran-1-carbonyl)amino](phenyl)methyl}pyridine] |  | 500 to 5000
O=C(NCc1ccccc1OCC1CC1)C1C2Oc3ccc(F)cc3C21 (stereo not drawn) [Example C40, exo-N-{[2-(cyclopropylmethoxy)phenyl]methyl}-5-fluoro-1a,6b-dihydro-1H-cyclopropa[b][1]benzofuran-1-carboxamide] | 620 | 500 to 5000
O=C(NCc1nc(Br)no1)C1C2Oc3ccc(F)cc3C21 (stereo not drawn) [Example C41, exo-N-[(3-bromo-1,2,4-oxadiazol-5-yl)methyl]-5-fluoro-1a,6b-dihydro-1H-cyclopropa[b][1]benzofuran-1-carboxamide] |  | 500 to 5000
O=C(NCc1nc(Cc2ccccc2)no1)C1C2Oc3ccc(F)cc3C21 (stereo not drawn) [Example C42, exo-N-[(3-benzyl-1,2,4-oxadiazol-5-yl)methyl]-5-fluoro-1a,6b-dihydro-1H-cyclopropa[b][1]benzofuran-1-carboxamide] | 6600 | 5000 to 50000
CC(NC(=O)C1C2Oc3ccc(F)cc3C21)c1ccno1 (stereo not drawn) [Example C43, exo-5-fluoro-N-[1-(1,2-oxazol-5-yl)ethyl]-1a,6b-dihydro-1H-cyclopropa[b][1]benzofuran-1-carboxamide] | 1900 | 500 to 5000
COc1ccc(-c2cc(CNC(=O)C3C4Oc5ccc(F)cc5C43)on2)cc1 (stereo not drawn) [Example C44, exo-5-fluoro-N-{[3-(4-methoxyphenyl)-1,2-oxazol-5-yl]methyl}-1a,6b-dihydro-1H-cyclopropa[b][1]benzofuran-1-carboxamide] |  | 5000 to 50000
COc1cc(CNC(=O)C2C3Oc4ccc(F)cc4C32)on1 (stereo not drawn) [Example C45, exo-5-fluoro-N-[(3-methoxy-1,2-oxazol-5-yl)methyl]-1a,6b-dihydro-1H-cyclopropa[b][1]benzofuran-1-carboxamide] |  | 5000 to 50000
O=C(NCc1cc(-c2ccccn2)no1)C1C2Oc3ccc(F)cc3C21 (stereo not drawn) [Example C46, exo-5-fluoro-N-{[3-(pyridin-2-yl)-1,2-oxazol-5-yl]methyl}-1a,6b-dihydro-1H-cyclopropa[b][1]benzofuran-1-carboxamide] | 520 | 500 to 5000
O=C(NCc1cc(Br)no1)C1C2Oc3ccc(F)cc3C21 (stereo not drawn) [Example C47, exo-N-[(3-bromo-1,2-oxazol-5-yl)methyl]-5-fluoro-1a,6b-dihydro-1H-cyclopropa[b][1]benzofuran-1-carboxamide] |  | 500 to 5000
O=C(NCc1cc(-c2ccccc2)no1)C1C2Oc3ccc(F)cc3C21 (stereo not drawn) [Example C48, exo-5-fluoro-N-[(3-phenyl-1,2-oxazol-5-yl)methyl]-1a,6b-dihydro-1H-cyclopropa[b][1]benzofuran-1-carboxamide] | 550 | 500 to 5000
O=C(NCc1noc(-c2ccccc2)n1)C1C2Oc3ccc(F)cc3C21 (stereo not drawn) [Example C49, exo-5-fluoro-N-[(5-phenyl-1,2,4-oxadiazol-3-yl)methyl]-1a,6b-dihydro-1H-cyclopropa[b][1]benzofuran-1-carboxamide] | 270 | 100 to 500
O=C(NCc1nnc(-c2ccccc2)o1)C1C2Oc3ccc(F)cc3C21 (stereo not drawn) [Example C50, exo-5-fluoro-N-[(5-phenyl-1,3,4-oxadiazol-2-yl)methyl]-1a,6b-dihydro-1H-cyclopropa[b][1]benzofuran-1-carboxamide] | 480 | 100 to 500
